Test results reported in PMC10413920, “Design, synthesis and in vitro biological studies of novel triazoles with potent and broad-spectrum antifungal activity” (Journal of Enzyme Inhibition and Medicinal Chemistry, 2023).
Converted amounts (≈) assume the structure as drawn.

Legend:
[1] = tested on: Cryptococcus neoformans 22-21; assay: Broth microdilution MIC (CLSI M27-A3/M60); type: cell-based; conditions: 2221, MIC80 (≥80% growth inhibition), 30 °C, 48 h, read-out: MIC, C. neo 22-21
Experimental: (§1) According to the Clinical Laboratory Standards Institute (CLSI, M27-A3 and M60) protocols[10]^,[11], the target compounds were evaluated for their in vitro antifungal activity by the broth microdilution method. The fungi strains used in this study were obtained from the American Type Culture Collection (ATCC) and Changhai Hospital (Shanghai, China). […] Fluconazole (FCZ) and ketoconazole (KCZ) were used as positive controls.
(§2) All fungal strains used in this study were obtained from the American Type Culture Collection (ATCC) and Changhai Hospital (Shanghai, China). All strains were cultivated by shaking (200 rpm) at 30 °C in YEPD medium (1% yeast extract, 2% peptone, and 2% dextrose) to an exponential growth stage.
(§3) Fungal cells at the exponential growth stage were collected and resuspended in RPMI 1640 medium, then diluted to 1 × 10^3 cells/mL. The suspension of fungal cells was inoculated into 96-well plates. Antifungal compounds were serially added and diluted in a 2-fold series to a final concentration range of 64.0–0.125 µg/mL. RPMI 1640 medium with no fungal cells served as a blank control. The fungal suspensions containing DMSO and FCZ served as the negative control and the positive control, respectively. C. albicans, C. glabrata, C. parapsilosis, C. tropicalis, and C. auris cells were incubated at 30 °C for 24 h, C. neoformans and A. fumigatus cells were incubated at 30 °C for 48 h. The optical density (OD630) at 630 nm was measured by a spectrophotometer, which was used to calculate the MIC80 values of each compound.

Candida albicans SC5314 = assay: Broth microdilution MIC (CLSI M27-A3/M60); type: cell-based; conditions: MIC80 (≥80% growth inhibition), 30 °C, 24 h; for MIC: Candida albicans, SC5314, read-out: MIC, C. alb SC5314
Experimental: as §1, §2, §3

[2] = tested on: Aspergillus fumigatus 7544; assay: Broth microdilution MIC (CLSI M27-A3/M60); type: cell-based; conditions: MIC80 (≥80% growth inhibition), 30 °C, 48 h; for MIC: Aspergillus fumigatus, 7544, read-out: MIC, A. fum 7544
Experimental: as §1, §2, §3

Candida tropicalis 8915 = assay: Broth microdilution MIC (CLSI M27-A3/M60); type: cell-based; conditions: MIC80 (≥80% growth inhibition), 30 °C, 24 h; for MIC: Candida tropicalis, 8915, read-out: MIC, C. tro 8915
Experimental: as §1, §2, §3

Candida glabrata 537 = assay: Broth microdilution MIC (CLSI M27-A3/M60); type: cell-based; conditions: MIC80 (≥80% growth inhibition), 30 °C, 24 h; for MIC: Nakaseomyces glabratus, 537, read-out: MIC, C. gla 537
Experimental: as §1, §2, §3

[3] = tested on: Candida parapsilosis 22-20; assay: Broth microdilution MIC (CLSI M27-A3/M60); type: cell-based; conditions: Lodderomyces parapsilosis, 2220; MIC80 (≥80% growth inhibition), 30 °C, 24 h; read-out: MIC, C. par 22-20
Experimental: as §1, §2, §3

C. auris 918 = assay: MIC against FCZ-resistant strains, microdilution; type: cell-based, Candida auris; conditions: Candidozyma auris, FCZ-resistant isolate, 30 °C, 24 h
Source text: (§4) The alarming impact of drug resistance amongst Candida spp. is an emerging problem globally. Rising rates of azole-resistant Candida spp. are associated with an increase in treatment failures. Candida auris is characterised by a high level of multi-drug resistance. It has been reported in more than 45 countries and has caused serious hospital outbreaks with crude mortality rates as high as 72%[13]^,[14].
as §2
as §3, with “The fungal suspensions containing DMSO and FCZ served as the negative control and the positive control, respectively.” left out

C. auris 919 = assay: MIC against FCZ-resistant strains, microdilution; type: cell-based, Candida auris; conditions: Candidozyma auris, FCZ-resistant isolate, 30 °C, 24 h
Source text: as §4, §2
as §3, with “The fungal suspensions containing DMSO and FCZ served as the negative control and the positive control, respectively.” left out

[4] = tested on: FCZ-resistant C. albicans 901; assay: MIC against FCZ-resistant strains, microdilution; type: cell-based, Candida albicans; conditions: FCZ-resistant isolate, 30 °C, 24 h; for MIC: Candida albicans, read-out: MIC, C.alb 901
Source text: as §4, §2
as §3, with “The fungal suspensions containing DMSO and FCZ served as the negative control and the positive control, respectively.” left out

in vitro = conditions: rabbit
C. albicans SC5314 = assay: GC-MS analysis of sterol composition; type: cell-based, Candida albicans; conditions: 8 µg/mL, 8 h; for ergosterol content of the fungal cells (of total sterols): control 89.85%
Experimental: As the major fungal sterol, ergosterol accounted for 89.85% of the total sterols in the control group, zymosterol accounted for 8.80%, in addition to several other sterols. […] In contrast, the content of other sterols in the bypass pathway increased.
Overnight cultured C. albicans SC5314 fungal cells were collected and diluted to 5 × 10^6 cells/mL in YEPD medium. […] The fungal cells were cultured by shaking (200 rpm) at 30 °C. After incubation for 8 h, the fungal suspension was centrifuged (3000 rpm, 1 min), harvested and washed twice with distilled water carefully. The saponifying agent (6 ml of 15% NaOH resolved in 90% ethanol) was added to the precipitate. After 1 h of saponification at 80 °C, sterols were extracted with hexane (3 × 5 ml). The combined extracts were evaporated in a water bath and washed once with water. The residue was dried in a 60 °C water bath to obtain the total sterols. Finally, the total sterol was analysed by GC-MS and the structures of each sterol content were identified and compared with the National Institute of Standards and Technology (NIST) database.

Structure (SMILES)	MIC [1]	MIC (Candida albicans SC5314)	MIC [2]	MIC (Candida tropicalis 8915)	MIC (Candida glabrata 537)	MIC [3]	MIC (C. auris 918)	MIC (C. auris 919)	MIC [4]	also measured
C[C@@H](NC(=O)CCc1ccc(Cl)c(Cl)c1)[C@](O)(Cn1cncn1)c1ccc(F)cc1F [A16]	≤ 0.125 µg/mL	≤ 0.125 µg/mL	64 µg/mL (≈ 136 µM)	8 µg/mL (≈ 17 µM)	≤ 0.125 µg/mL	0.5 µg/mL (≈ 1.07 µM)	> 64 µg/mL	> 64 µg/mL	2 µg/mL (≈ 4.26 µM)	–
Cc1ccc(CCC(=O)N[C@H](C)[C@](O)(Cn2cncn2)c2ccc(F)cc2F)nc1 [A21]	4 µg/mL (≈ 9.63 µM)	2 µg/mL (≈ 4.81 µM)	> 64 µg/mL	> 64 µg/mL	2 µg/mL (≈ 4.81 µM)	4 µg/mL (≈ 9.63 µM)	–	–	–	–
Cc1ccc(CCC(=O)N[C@H](C)[C@](O)(Cn2cncn2)c2ccc(F)cc2F)cn1 [A25]	16 µg/mL (≈ 38.5 µM)	16 µg/mL (≈ 38.5 µM)	> 64 µg/mL	> 64 µg/mL	2 µg/mL (≈ 4.81 µM)	64 µg/mL (≈ 154 µM)	–	–	–	–
Cc1ccncc1CCC(=O)N[C@H](C)[C@](O)(Cn1cncn1)c1ccc(F)cc1F [A23]	8 µg/mL (≈ 19.3 µM)	64 µg/mL (≈ 154 µM)	> 64 µg/mL	> 64 µg/mL	1 µg/mL (≈ 2.41 µM)	16 µg/mL (≈ 38.5 µM)	–	–	–	–
C[C@@H](NC(=O)CCc1ccccc1)[C@](O)(Cn1cncn1)c1ccc(F)cc1F [A1]	0.25 µg/mL (≈ 0.624 µM)	≤ 0.125 µg/mL	64 µg/mL (≈ 160 µM)	> 64 µg/mL	≤ 0.125 µg/mL	0.5 µg/mL (≈ 1.25 µM)	64 µg/mL (≈ 160 µM)	32 µg/mL (≈ 79.9 µM)	1 µg/mL (≈ 2.5 µM)	MIC, C. alb SC5314 (Candida albicans SC5314): ≤ 0.125 µg/mL; MIC, C. gla 537 (Candida glabrata 537): ≤ 0.125 µg/mL; hemolysis at 1 h, 16 µg/mL (in vitro): 0.95%; MIC, C.alb 901 [4]: 1.0 µg/mL (≈ 2.5 µM); proportion of 14α-methylfecosterol (of total sterols) (C. albicans SC5314): 31.11%; proportion of eburicol (of total sterols) (C. albicans SC5314): 19.29%; proportion of lanosterol (of total sterols) (C. albicans SC5314): 23.42%; proportion of obtusifoliol (of total sterols) (C. albicans SC5314): 20.09%; ergosterol content of the fungal cells (of total sterols) (C. albicans SC5314): 5.44%
CC(=O)c1ccc(CCC(=O)N[C@H](C)[C@](O)(Cn2cncn2)c2ccc(F)cc2F)cc1 [A11]	1 µg/mL (≈ 2.26 µM)	2 µg/mL (≈ 4.52 µM)	> 64 µg/mL	> 64 µg/mL	1 µg/mL (≈ 2.26 µM)	4 µg/mL (≈ 9.04 µM)	–	–	–	–
OC(Cn1cncn1)(Cn1cncn1)c1ccc(F)cc1F [FCZ, fluconazole, reference compound]	1 µg/mL (≈ 3.27 µM)	0.5 µg/mL (≈ 1.63 µM)	> 64 µg/mL	> 64 µg/mL	1 µg/mL (≈ 3.27 µM)	4 µg/mL (≈ 13.1 µM)	> 256 µg/mL	> 256 µg/mL	> 256 µg/mL	MIC, A. fum 7544 [2]: > 64.0 µg/mL; MIC, C. tro 8915 (Candida tropicalis 8915): > 64.0 µg/mL; hemolysis at 1 h, 16 µg/mL (in vitro): 1.3%; ergosterol content of the fungal cells (of total sterols) (C. albicans SC5314): 6.08%
C[C@@H](NC(=O)CCc1ccc(Cl)c(F)c1)[C@](O)(Cn1cncn1)c1ccc(F)cc1F [A15]	0.5 µg/mL (≈ 1.1 µM)	≤ 0.125 µg/mL	32 µg/mL (≈ 70.7 µM)	8 µg/mL (≈ 17.7 µM)	≤ 0.125 µg/mL	0.5 µg/mL (≈ 1.1 µM)	64 µg/mL (≈ 141 µM)	64 µg/mL (≈ 141 µM)	8 µg/mL (≈ 17.7 µM)	–
Cc1cccnc1CCC(=O)N[C@H](C)[C@](O)(Cn1cncn1)c1ccc(F)cc1F [A19]	2 µg/mL (≈ 4.81 µM)	1 µg/mL (≈ 2.41 µM)	> 64 µg/mL	> 64 µg/mL	1 µg/mL (≈ 2.41 µM)	2 µg/mL (≈ 4.81 µM)	–	–	–	–
C[C@@H]1[C@H](O)[C@@H](C)/C=C/C=C/C=C/C=C/C=C/C=C/C=C/[C@H](O[C@@H]2O[C@H](C)[C@@H](O)[C@H](N)[C@@H]2O)C[C@@H]2O[C@](O)(C[C@@H](O)C[C@@H](O)[C@H](O)CC[C@@H](O)C[C@@H](O)CC(=O)O[C@H]1C)C[C@H](O)[C@H]2C(=O)O [AmB, amphotericin B]	–	–	–	–	–	–	–	–	–	hemolysis at 1 h, 16 µg/mL (in vitro): 4.87%; hemolysis at 1 h, 32 µg/mL (in vitro): 57.7%; hemolysis at 1 h, 64 µg/mL (in vitro): 100%
C[C@@H](NC(=O)CCc1ccc(F)c(F)c1)[C@](O)(Cn1cncn1)c1ccc(F)cc1F [A14]	1 µg/mL (≈ 2.29 µM)	≤ 0.125 µg/mL	64 µg/mL (≈ 147 µM)	64 µg/mL (≈ 147 µM)	≤ 0.125 µg/mL	1 µg/mL (≈ 2.29 µM)	> 64 µg/mL	> 64 µg/mL	4 µg/mL (≈ 9.17 µM)	–
C[C@@H](NC(=O)CCc1ccc(C(C)(C)C)cc1)[C@](O)(Cn1cncn1)c1ccc(F)cc1F [A9]	≤ 0.125 µg/mL	≤ 0.125 µg/mL	32 µg/mL (≈ 70.1 µM)	> 64 µg/mL	≤ 0.125 µg/mL	0.25 µg/mL (≈ 0.548 µM)	> 64 µg/mL	32 µg/mL (≈ 70.1 µM)	32 µg/mL (≈ 70.1 µM)	MIC, C. alb SC5314 (Candida albicans SC5314): ≤ 0.125 µg/mL; hemolysis at 1 h, 16 µg/mL (in vitro): 0.78%; ergosterol content of the fungal cells (of total sterols) (C. albicans SC5314): 5.17%
CC(=O)N1CCN(c2ccc(OCC3COC(Cn4ccnc4)(c4ccc(Cl)cc4Cl)O3)cc2)CC1 (stereo not shown) [KCZ, ketoconazole, reference compound]	0.125 µg/mL (≈ 0.235 µM)	4 µg/mL (≈ 7.53 µM)	4 µg/mL (≈ 7.53 µM)	16 µg/mL (≈ 30.1 µM)	1 µg/mL (≈ 1.88 µM)	0.5 µg/mL (≈ 0.941 µM)	–	–	–	–
C[C@@H](NC(=O)CCc1cc(F)cc(F)c1)[C@](O)(Cn1cncn1)c1ccc(F)cc1F [A17]	0.5 µg/mL (≈ 1.15 µM)	≤ 0.125 µg/mL	32 µg/mL (≈ 73.3 µM)	16 µg/mL (≈ 36.7 µM)	≤ 0.125 µg/mL	0.5 µg/mL (≈ 1.15 µM)	> 64 µg/mL	> 64 µg/mL	4 µg/mL (≈ 9.17 µM)	–
Cc1cncc(CCC(=O)N[C@H](C)[C@](O)(Cn2cncn2)c2ccc(F)cc2F)c1 [A24]	32 µg/mL (≈ 77 µM)	16 µg/mL (≈ 38.5 µM)	> 64 µg/mL	> 64 µg/mL	4 µg/mL (≈ 9.63 µM)	32 µg/mL (≈ 77 µM)	–	–	–	–
Cc1ccnc(CCC(=O)N[C@H](C)[C@](O)(Cn2cncn2)c2ccc(F)cc2F)c1 [A20]	4 µg/mL (≈ 9.63 µM)	1 µg/mL (≈ 2.41 µM)	> 64 µg/mL	> 64 µg/mL	2 µg/mL (≈ 4.81 µM)	4 µg/mL (≈ 9.63 µM)	–	–	–	–
